In ChEMBL document CHEMBL1201862, “PubChem BioAssay data set” (2004):
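Method: 48-hour compound exposure of cells in 96-well plates, five concentrations, linear interpolation of endpoints. At the GI50, growth is halved.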 Activity calls are given as the source filed them. Cut-off read from the data, not from the text of the source: active = GI50 up to about 1.1 µM and inactive = higher.

Tests used:
Test in all cases: DTP human tumour cell line panel, 48 h
A549 = tested on: A549
Malme-3M = tested on: Malme-3M
SK-MEL-5 = tested on: SK-MEL-5
SK-MEL-2 = tested on: SK-MEL-2
CAKI-1 = tested on: CAKI-1
HCC 2998 = tested on: HCC 2998
PC-3 = tested on: PC-3
UACC-257 = tested on: UACC-257
SF-268 = tested on: SF-268
OVCAR-4 = tested on: OVCAR-4
HL-60 = tested on: HL-60
UO-31 = tested on: UO-31
SF-539 = tested on: SF-539
MCF7 = tested on: MCF7
NCI-H460 = tested on: NCI-H460
DU-145 = tested on: DU-145
UACC-62 = tested on: UACC-62
HT-29 = tested on: HT-29
OVCAR-3 = tested on: OVCAR-3
M14 = tested on: M14

Compound | GI50 (A549) | GI50 (Malme-3M) | GI50 (SK-MEL-5) | GI50 (SK-MEL-2) | GI50 (CAKI-1) | GI50 (HCC 2998) | GI50 (PC-3) | GI50 (UACC-257) | GI50 (SF-268) | GI50 (OVCAR-4) | GI50 (HL-60) | GI50 (UO-31) | GI50 (SF-539) | GI50 (MCF7) | GI50 (NCI-H460) | GI50 (DU-145) | GI50 (UACC-62) | GI50 (HT-29) | GI50 (OVCAR-3) | GI50 (M14)
CN(/N=C/c1cccc2cccnc12)c1ccc(Cl)cc1[N+](=O)[O-] | > 100 µM (inactive) | > 100 µM (inactive) | > 100 µM (inactive) | > 100 µM (inactive) | 45.2 µM (inactive) | > 100 µM (inactive) | > 100 µM (inactive) | > 100 µM (inactive) | > 100 µM (inactive) | > 100 µM (inactive) | > 100 µM (inactive) | > 100 µM (inactive) | > 100 µM (inactive) | 31.6 µM (inactive) | 45.7 µM (inactive) | > 100 µM (inactive) | > 100 µM (inactive) | 59.4 µM (inactive) | > 100 µM (inactive) | > 100 µM (inactive)
Nc1ccc(Oc2ccc(C3(c4ccc(Oc5ccc(N)cc5)cc4)C4CC5CC(C4)CC3C5)cc2)cc1 | 6.08 µM (inactive) | 23.7 µM (inactive) | 14.4 µM (inactive) | 23 µM (inactive) | 15.8 µM (inactive) | 0.322 µM (active) | 5.7 µM (inactive) | 6.67 µM (inactive) | 20.3 µM (inactive) | 8.71 µM (inactive) | 5 µM (inactive) | 3.01 µM (inactive) | 10.9 µM (inactive) | 3.55 µM (inactive) | 2.42 µM (inactive) | 6.64 µM (inactive) | 17.3 µM (inactive) | 0.489 µM (active) | 0.353 µM (active) | 3.2 µM (inactive)
O=c1[nH]nc(Cc2ccc(Cl)cc2)n1/N=C/c1c[nH]c2ccccc12 | > 100 µM (inactive) | > 100 µM (inactive) | > 100 µM (inactive) | > 100 µM (inactive) | > 100 µM (inactive) | > 100 µM (inactive) | > 100 µM (inactive) | > 100 µM (inactive) | > 100 µM (inactive) | > 100 µM (inactive) | > 100 µM (inactive) | > 100 µM (inactive) | > 100 µM (inactive) | > 100 µM (inactive) | > 100 µM (inactive) | > 100 µM (inactive) | > 100 µM (inactive) | > 100 µM (inactive) | > 100 µM (inactive) | > 100 µM (inactive)
Cc1ccccc1OC(C)C(=O)NN1C(=O)CC(=O)N(c2ccccc2)C1=S (stereo not given) | 29.1 µM (inactive) | > 100 µM (inactive) | 60.3 µM (inactive) | 72.9 µM (inactive) | > 100 µM (inactive) | 70.8 µM (inactive) | 72.1 µM (inactive) | 58.3 µM (inactive) | 76.6 µM (inactive) | > 100 µM (inactive) | 10.4 µM (inactive) | 35.8 µM (inactive) | > 100 µM (inactive) | 42.3 µM (inactive) | 45.8 µM (inactive) | 51.1 µM (inactive) | 54.1 µM (inactive) | 76 µM (inactive) | 53.2 µM (inactive) | 52 µM (inactive)
C=CCc1cc(C(Cc2ccccc2)NC(C)C)cc(OCc2ccccc2)c1OCc1ccccc1 (stereo not given) | 16.7 µM (inactive) | 15.5 µM (inactive) | 16.6 µM (inactive) | 18.6 µM (inactive) | 15.7 µM (inactive) | 13.7 µM (inactive) | 15.3 µM (inactive) | 18.8 µM (inactive) | 16 µM (inactive) | 17.4 µM (inactive) | 14.5 µM (inactive) | 10.1 µM (inactive) | 15.2 µM (inactive) | 17.3 µM (inactive) | 15 µM (inactive) | 16.2 µM (inactive) | 15.1 µM (inactive) | 15.1 µM (inactive) | 16.7 µM (inactive) | 15.3 µM (inactive)
N#Cc1c(-c2ccccc2)[nH]c2ccc(Cl)cc2c1=O | 13 µM (inactive) | > 100 µM (inactive) | > 100 µM (inactive) | 16.7 µM (inactive) | 1.62 µM (inactive) | > 100 µM (inactive) | > 100 µM (inactive) | > 100 µM (inactive) | 36.1 µM (inactive) | > 100 µM (inactive) | > 100 µM (inactive) | 22.4 µM (inactive) | > 100 µM (inactive) | > 100 µM (inactive) | > 100 µM (inactive) | > 100 µM (inactive) | 57.3 µM (inactive) | > 100 µM (inactive) | > 100 µM (inactive) | > 100 µM (inactive)
COc1ccc2c(c1)CCCC(Br)C2=O (stereo not given) | 4.71 µM (inactive) | 4.48 µM (inactive) | 2.55 µM (inactive) | 1.24 µM (inactive) | 2.96 µM (inactive) | 7.66 µM (inactive) | 3.9 µM (inactive) | 11.5 µM (inactive) | 3.35 µM (inactive) | 6.52 µM (inactive) | 3.59 µM (inactive) | 2.17 µM (inactive) | 2.56 µM (inactive) | 3.43 µM (inactive) | 3.18 µM (inactive) | 15.1 µM (inactive) | 2.8 µM (inactive) | 5.31 µM (inactive) | 9.08 µM (inactive) | 3.4 µM (inactive)
O=S(=O)(O)c1ccc(NN(c2c(O)ccc3ccccc23)S(=O)(=O)O)cc1 | > 100 µM (inactive) | > 100 µM (inactive) | > 100 µM (inactive) | > 100 µM (inactive) | > 100 µM (inactive) | > 100 µM (inactive) | > 100 µM (inactive) | > 100 µM (inactive) | > 100 µM (inactive) | > 100 µM (inactive) | > 100 µM (inactive) | > 100 µM (inactive) | > 100 µM (inactive) | > 100 µM (inactive) | > 100 µM (inactive) | > 100 µM (inactive) | > 100 µM (inactive) | > 100 µM (inactive) | > 100 µM (inactive) | > 100 µM (inactive)
CCOC(=O)Cc1nnc2n(-c3ccccc3)c(=O)c3ccccc3n12 | > 100 µM (inactive) | > 100 µM (inactive) | > 100 µM (inactive) | 41.6 µM (inactive) | 20.2 µM (inactive) | > 100 µM (inactive) | 34.5 µM (inactive) | 46.1 µM (inactive) | 61.7 µM (inactive) | > 100 µM (inactive) | > 100 µM (inactive) | > 100 µM (inactive) | 51.6 µM (inactive) | > 100 µM (inactive) | > 100 µM (inactive) | > 100 µM (inactive) | 44.3 µM (inactive) | > 100 µM (inactive) | > 100 µM (inactive) | > 100 µM (inactive)
CN(C)CCNS(=O)(=O)c1ccc(N)cc1 | > 100 µM (inactive) | > 100 µM (inactive) | > 100 µM (inactive) | 18 µM (inactive) | > 100 µM (inactive) | > 100 µM (inactive) | 19.9 µM (inactive) | > 100 µM (inactive) | > 100 µM (inactive) | > 100 µM (inactive) | > 100 µM (inactive) | > 100 µM (inactive) | > 100 µM (inactive) | > 100 µM (inactive) | > 100 µM (inactive) | > 100 µM (inactive) | > 100 µM (inactive) | > 100 µM (inactive) | 17.2 µM (inactive) | > 100 µM (inactive)
CC(C)c1ccc(C(c2c(O)oc3ccccc3c2=O)c2c(O)oc3ccccc3c2=O)cc1 | 19.1 µM (inactive) | 20.6 µM (inactive) | 16 µM (inactive) | 14.5 µM (inactive) | 22.8 µM (inactive) | 18.7 µM (inactive) | 19 µM (inactive) | 21.3 µM (inactive) | 25.6 µM (inactive) | 28.4 µM (inactive) | 6.03 µM (inactive) | 13.8 µM (inactive) | 21.8 µM (inactive) | 27.9 µM (inactive) | 18.7 µM (inactive) | 23.8 µM (inactive) | 15.5 µM (inactive) | 20.8 µM (inactive) | 18.7 µM (inactive) | 19.6 µM (inactive)
C=C(C)C1CC2=C(C(=O)OC)C=C(O2)C(C(=C)C)[C@@H]2OC(=O)/C(=C\C1O)[C@H]2N(C)C (stereo not given in full) | 13.9 µM (inactive) | 12.9 µM (inactive) | 14.2 µM (inactive) | 13 µM (inactive) | 7.71 µM (inactive) | 14.7 µM (inactive) | 11.4 µM (inactive) | 20.9 µM (inactive) | 17 µM (inactive) | 5.64 µM (inactive) | 2.82 µM (inactive) | 13.4 µM (inactive) | 7.4 µM (inactive) | 5.92 µM (inactive) | 15.2 µM (inactive) | 12.1 µM (inactive) | 14.5 µM (inactive) | 15 µM (inactive) | 12.6 µM (inactive) | 12.9 µM (inactive)
